Measurements published in patent publication US20110152089A1, “HERBICIDAL COMPOSITIONS COMPRISING FLUFENACET” (Bayer CropScience AG, priority 2009, published 2011).

Assays:
HORVS [1] = assay: PE application with different irrigation, crop selectivity, greenhouse (Table 4); assay type: in vivo, Hordeum vulgare, summer barley; conditions: g of AS/ha: (A) 90, (B) 300, (C) 140, (A)+(B)+(C) 90 + 300 + 140
Experimental: (§1) In the standard design of the test, seeds of various broad-leaved weed and weed grass biotypes (origins) were sown in a 8-13 cm diameter pot filled with natural soil of a standard field soil (loamy silt; non-sterile) and covered with a covering soil layer of about 1 cm. The pots were then cultivated in a greenhouse (12-16 h of light, temperature day 20-22° C., night 15-18° C.) until the time of application. The pots were treated on a laboratory track sprayer with spray liquors comprising the compositions according to the invention, mixtures of the prior art or components used individually. Application of the active compounds or active compound combinations formulated as WG, WP, EC or otherwise was carried out at the appropriate growth stages of the plants. The application rate for the spray application was 100-600 l of water/ha. After the treatment, the plants were returned to the greenhouses.
(§2) About 3 weeks after the application, the soil action or/and foliar action was assessed visually according to a scale of 0-100% in comparison to an untreated comparative group: 0%=no noticeable effect compared to the untreated comparative group; 100%=full effect compared to the untreated comparative group.
(§3) (notes: the term “seeds” also includes vegetative propagation forms such as, for example, rhizome pieces; abbreviations used: h light=hours of illumination, g of AS/ha=gram of active substance per hectare, l/ha=liter per hectare, S=sensitive, R=resistant) • 1. Pre-emergence action against weeds: seeds of various broad-leaved weed and weed grass biotypes (origins) were sown in a 8-13 cm diameter pot filled with natural soil of a standard field soil (loamy silt; non-sterile) and covered with a covering soil layer of about 1 cm. The pots were then cultivated in a greenhouse (12-16 h of light, temperature day 20-22° C., night 15-18° C.) until the time of application. The pots were treated at the BBCH stage 00-10 of the seeds/plants on a laboratory track sprayer with spray liquors comprising the compositions according to the invention, mixtures or components used individually, as WG, WP, EC or other formulations. The application rate for the spray application was 100-600 l of water/ha. After the treatment, the plants were returned to the greenhouses and, when required, treated with fertilizer and watered. • 2. Post-emergence action against weeds: seeds of various broad-leaved weed and weed grass biotypes (origins) were sown in a 8-13 cm diameter pot filled with natural soil of a standard field soil (loamy silt; non-sterile) and covered with a covering soil layer of about 1 cm. The pots were then cultivated in a greenhouse (12-16 h of light, temperature day 20-22° C., night 15-18° C.) until the time of application. The pots were treated at various BBCH stages between 11-25 of the seeds/plants, i.e. generally between two to three weeks after the start of the cultivation, on a laboratory track sprayer with spray liquors comprising the compositions according to the invention, mixtures or components used individually, as WG, WP, EC or other formulations. The application rate for the spray application was 100-600 l of water/ha. After the treatment, the plants were returned to the greenhouses and, when required, treated with fertilizer and watered. • 3. Pre-emergence action against weeds with and without incorporation of active compound: seeds of various broad-leaved weed and weed grass biotypes (origins) were sown in a 8-13 cm diameter pot filled with natural soil of a standard field soil (loamy silt; non-sterile). […]

HORVS [2] = assay: Different soil pH, PE application, crop selectivity, greenhouse (Table 8); assay type: in vivo, Hordeum vulgare, summer barley
Experimental: as §1, §2, §3

STEME [3] = assay: Resistant biotypes, PE application, greenhouse (Table 6); assay type: in vivo, Stellaria media; conditions: g of AS/ha: (A) 90, (B) 300, (C) 140, (A)+(B)+(C) 120 + 600 + 140, iodosulfuron 10; for activity STEME resistant: resistant biotype; for activity STEME sensitive: sensitive biotype
Experimental: as §1, §2, §3

HORVS [4] = assay: PE application vs pre-sowing application, crop selectivity, greenhouse (Table 3); assay type: in vivo, Hordeum vulgare, summer barley; conditions: g of AS/ha: (A) 90, (B) 300, (C) 140, (A)+(B)+(C) 90 + 300 + 140
Experimental: as §1, §2, §3

VIOAR = assay: Activity with different soil types, greenhouse (Table 5); assay type: in vivo, Viola arvensis; conditions: g of AS/ha: (A) 90, (B) 300, (C) 140, (A)+(B)+(C) 90 + 300 + 140
Experimental: as §1, §2, §3

MATCH [5] = assay: PE application with different irrigation, greenhouse (Table 4); assay type: in vivo, Matricaria chamomilla; conditions: g of AS/ha: (A) 90, (B) 300, (C) 140, (A)+(B)+(C) 90 + 300 + 140
Experimental: as §1, §2, §3

STEME [6] = assay: PE soil application vs incorporation into the soil, greenhouse (Table 1); assay type: in vivo, Stellaria media; conditions: g of AS/ha: (A) 90, (B) 300, (C) 70, (A)+(B)+(C) 90 + 300 + 70, visual, about 3 weeks after application
Experimental: as §1, §2, §3

HORVS [7] = assay: PE soil application vs incorporation into the soil, crop selectivity, greenhouse (Table 1); assay type: in vivo, Hordeum vulgare, summer barley; conditions: g of AS/ha: (A) 90, (B) 300, (C) 70, (A)+(B)+(C) 90 + 300 + 70, visual, about 3 weeks after application
Experimental: as §1, §2, §3

POAAN = assay: PO application, greenhouse (Table 2); assay type: in vivo, Poa annua; conditions: g of AS/ha: (A) 120, (B) 1200, (C) 140, (A)+(B)+(C) 120 + 1200 + 140, visual, about 3 weeks after application
Experimental: as §1, §2
(§4) (notes: the term “seeds” also includes vegetative propagation forms such as, for example, rhizome pieces; abbreviations used: h light=hours of illumination, g of AS/ha=gram of active substance per hectare, l/ha=liter per hectare, S=sensitive, R=resistant) • 1. Pre-emergence action against weeds: seeds of various broad-leaved weed and weed grass biotypes (origins) were sown in a 8-13 cm diameter pot filled with natural soil of a standard field soil (loamy silt; non-sterile) and covered with a covering soil layer of about 1 cm. The pots were then cultivated in a greenhouse (12-16 h of light, temperature day 20-22° C., night 15-18° C.) until the time of application. […]

TRZAW = assay: Different soil pH, PE application, crop selectivity, greenhouse (Table 8); assay type: in vivo, Triticum aestivum, winter wheat
Experimental: as §1, §2, §3

HORVS [8] = assay: Different sowing depths, PE application, crop selectivity, greenhouse (Table 7); assay type: in vivo, Hordeum vulgare, summer barley; conditions: g of AS/ha: (A) 90, (B) 300, (C) 140, (A)+(B)+(C) 90 + 300 + 140
Experimental: as §1, §2, §3

HORVS [9] = assay: PO application, crop selectivity, greenhouse (Table 2); assay type: in vivo, Hordeum vulgare, summer barley; conditions: g of AS/ha: (A) 120, (B) 1200, (C) 140, (A)+(B)+(C) 120 + 1200 + 140, visual, about 3 weeks after application
Experimental: as §1, §2, §4

HORVS [10] = assay: Activity with different soil types, crop selectivity, greenhouse (Table 5); assay type: in vivo, Hordeum vulgare, summer barley; conditions: g of AS/ha: (A) 90, (B) 300, (C) 140, (A)+(B)+(C) 90 + 300 + 140
Experimental: as §1, §2, §3

STEME [11] = assay: Activity with different soil types, greenhouse (Table 5); assay type: in vivo, Stellaria media; conditions: g of AS/ha: (A) 90, (B) 300, (C) 140, (A)+(B)+(C) 90 + 300 + 140
Experimental: as §1, §2, §3

AVEFA = assay: PE application with different irrigation, greenhouse (Table 4); assay type: in vivo, Avena fatua; conditions: g of AS/ha: (A) 90, (B) 300, (C) 140, (A)+(B)+(C) 90 + 300 + 140
Experimental: as §1, §2, §3

MATCH [12] = assay: Different soil pH, PE application, greenhouse (Table 8); assay type: in vivo, Matricaria chamomilla
Experimental: as §1, §2, §3

[13] = soil pH 7.4, g of AS/ha: (A) 90, (B) 300, (C) 140, (A)+(B)+(C) 90 + 300 + 140
[14] = soil pH 8.4, g of AS/ha: (A) 90, (B) 300, (C) 140, (A)+(B)+(C) 90 + 300 + 140
[15] = IU soil (loamy silt standard field soil)
[16] = IU/EC73 soil (heavy soil, higher organic substance)

CC(C)N(C(=O)COc1nnc(C(F)(F)F)s1)c1ccc(F)cc1 [(A) flufenacet, N-(4-fluorophenyl)-N-(1-methylethyl)-2-[[5-(trifluoromethyl)-1,3,4-thiadiazol-2-yl]oxy]acetamide]
activity HORVS (crop plant) (HORVS [1]; irrigation from above): 95% | activity HORVS (crop plant) (HORVS [1]; irrigation from below): 80% | activity HORVS pH 7.4 (crop plant) (HORVS [2]; [13]): 10% | activity HORVS pH 8.4 (crop plant) (HORVS [2]; [14]): 10% | activity STEME resistant (STEME [3]): 0% | activity STEME sensitive (STEME [3]): 0% | activity HORVS (crop plant) (HORVS [4]; PE application): 20% | activity HORVS (crop plant) (HORVS [4]; application 7 days prior to sowing): 40% | activity VIOAR IU soil (VIOAR; [15]): 0% | activity V18 VIOAR IU/EC73 soil (VIOAR; [16]): 0% | activity MATCH (MATCH [5]; irrigation from above): 49% | activity MATCH (MATCH [5]; irrigation from below): 15% | activity STEME (STEME [6]; PE application): 0% | activity STEME (STEME [6]; incorporation into the soil): 20% | activity HORVS (crop plant) (HORVS [7]; PE application): 20% | activity HORVS (crop plant) (HORVS [7]; incorporation into the soil): 60% | activity POAAN (POAAN): 60% | activity TRZAW pH 7.4 (crop plant) (TRZAW; [13]): 0% | activity TRZAW pH 8.4 (crop plant) (TRZAW; [14]): 20% | activity HORVS 5 mm (crop plant) (HORVS [8]; sowing depth 5 mm): 30% | activity HORVS 20 mm (crop plant) (HORVS [8]; sowing depth 20 mm): 20% | activity HORVS (crop plant) (HORVS [9]): 40% | activity HORVS IU soil (crop plant) (HORVS [10]; [15]): 10% | activity HORVS IU/EC73 soil (crop plant) (HORVS [10]; [16]): 0% | activity STEME IU soil (STEME [11]; [15]): 0% | activity STEME IU/EC73 soil (STEME [11]; [16]): 0% | activity AVEFA (AVEFA; irrigation from above): 92% | activity AVEFA (AVEFA; irrigation from below): 63% | activity MATCH pH 7.4 (MATCH [12]; [13]): 5% | activity MATCH pH 8.4 (MATCH [12]; [14]): 0%

COc1nc(C)nc(NC(=O)NS(=O)(=O)c2cc(I)ccc2C(=O)O)n1 [iodosulfuron]
activity STEME resistant (STEME [3]): 40% | activity STEME sensitive (STEME [3]): 90%
